Literature values in US20230025663A1, “NANOFORMULATION WITH DIVERSE FUNCTIONAL MOLECULES FROM TURMERIC AND PROCESS FOR PREPARATION OF THE SAME” (ZEROHARM SCIENCES PRIVATE LIMITED, priority 2021, published 2023).

Settings: in vivo

- bioavailability: ~1%
Compound: COc1cc(/C=C/C(=O)CC(=O)/C=C/c2ccc(O)c(OC)c2)ccc1O [curcumin]
